# Experimental data reported in ChEMBL document CHEMBL1148279, “Effects of bisphosphonates on the growth of Entamoeba histolytica and Plasmodium species in vitro and in vivo” (J Med Chem, 2004).
# What was measured:
# [1] = system: Plasmodium falciparum; assay: microbe, parasite or virus in culture
# Description: In vitro growth inhibition against Plasmodium falciparum
# [2] = in vitro; conditions: human, KB cells (nasopharyngeal carcinoma)
# Description: Toxicity evaluated against human nasopharyngeal carcinoma KB cell line
# [3] = system: Entamoeba histolytica; assay: In vitro growth inhibition against Entamoeba histolytica; format: functional, organism-based
# [4] = Therapeutic index was expressed as ratio of LD50 for KB cell line to IC50 against Entamoeba histolytica; format: cell-based; conditions: human, KB cells; read-out: TI
Compound,IC50 [1] [µM],CC50 [2] [µM],IC50 [3] [µM],selectivity ratio [4]
O=P(O)(O)C(Nc1nccc2ccccc12)P(=O)(O)O,50.4,673,> 200,–
O=P(O)(O)C(Nc1ccccn1)P(=O)(O)O,> 200,465,> 200,–
Cc1csc(NC(P(=O)(O)O)P(=O)(O)O)n1,> 200,150,> 200,–
O=P(O)(O)C(O)(CCc1cccnc1)P(=O)(O)O,–,> 804,> 200,–
O=P(O)(O)C(CNc1ccncc1)P(=O)(O)O,> 200,386,> 200,–
O=P(O)(O)C(CNc1ccccn1)P(=O)(O)O,17,144,> 200,–
CCCCCCCC(O)(P(=O)(O)O)P(=O)(O)O,26.7,308,22.3,–
NCCCCC(O)(P(=O)(O)O)P(=O)(O)O,–,91,> 200,–
CC(C)(C)c1cc(NC(P(=O)(O)O)P(=O)(O)O)cc(C(C)(C)C)c1,> 200,634,19.2,33
O=P(O)(O)C(Nc1cccnc1)P(=O)(O)O,> 200,782,60,13
O=P(O)(O)C(O)(Cc1c[nH]cn1)P(=O)(O)O,–,41,> 200,–
CCOP(=O)(OCC)C(Nc1ncccc1C)P(=O)(OCC)OCC,–,> 790,> 200,–
O=P(O)(O)C(Nc1cccnc1Cl)P(=O)(O)O,> 200,> 963,> 200,–
O=P(O)(O)C(Nc1nc2ccccc2s1)P(=O)(O)O,> 200,< 0.93,–,–
CCOP(=O)(OCC)C(Nc1cc(C)ccn1)P(=O)(OCC)OCC,> 200,127,> 200,–
O=P(O)(O)CC(c1cccnc1)P(=O)(O)O (centres undefined),> 200,1020,> 200,–
Nc1ccc(CC(O)(P(=O)(O)O)P(=O)(O)O)cc1,–,–,> 200,–
O=P(O)(O)C(Nc1ccc(I)cn1)P(=O)(O)O,> 200,466,39.5,11.8
CCn1c2ccccc2c2ccc(NC(P(=O)(O)O)P(=O)(O)O)cc21,104,710,> 200,–
O=P(O)(O)C(NCCCc1ccccc1)P(=O)(O)O,> 200,> 970,15.6,> 62.2
CCCCCCCc1ccc(NC(P(=O)(O)O)P(=O)(O)O)cc1,–,211,36.2,–
O=P(O)(O)C(O)(Cc1ccccn1)P(=O)(O)O,–,–,> 200,–
CCCCOc1ccc(NC(P(=O)(O)O)P(=O)(O)O)cc1,> 200,210,3.98,52.7
O=P(O)(O)C(N1CCCCC1)P(=O)(O)O,> 200,> 1090,> 200,–

Compound,IC50 [1] [µM],CC50 [2] [µM],IC50 [3] [µM],selectivity ratio [4]
O=C(O)c1cn(C2CC2)c2cc(N3CCN(CC(P(=O)(O)O)P(=O)(O)O)CC3)c(F)cc2c1=O,> 200,> 568,> 200,–
Cc1cc(C)nc(NC(P(=O)(O)O)P(=O)(O)O)c1,> 200,633,177,3.58
O=P(O)(O)C(Nc1ncccc1OCc1ccccc1)P(=O)(O)O,> 200,> 764,> 200,–
CCCC(O)(P(=O)(O)O)P(=O)(O)O,–,> 967,> 200,–
O=P(O)(O)CC(c1ccncc1)P(=O)(O)O (centres undefined),> 200,> 1120,> 200,–
O=P(O)(O)CC(c1ccccn1)P(=O)(O)O (centres undefined),> 200,< 1.1,> 200,–
O=P(O)(O)C(Nc1ccc(Cl)cn1)P(=O)(O)O,10.6,> 991,87,–
CCc1cccc(NC(P(=O)(O)O)P(=O)(O)O)c1,> 200,> 1020,> 200,–
Cc1cccnc1NC(P(=O)(O)O)P(=O)(O)O,–,–,> 200,–
CC(N)CC(O)(P(=O)(O)O)P(=O)(O)O (centres undefined),–,> 977,> 200,–
O=P(O)(O)C(O)(CCNCCCCc1ccccc1)P(=O)(O)O,> 200,> 727,20.5,> 35.5
Cc1ccnc(NC(P(=O)(O)O)P(=O)(O)O)c1,> 200,–,> 200,–
CCCCCCCCCCCCCCCCCC(O)(P(=O)(O)O)P(=O)(O)O,> 200,< 0.65,> 200,–
O=P(O)(O)C(Nc1c(F)c(F)c(F)c(F)c1F)P(=O)(O)O,> 200,> 779,> 200,–
O=P(O)(O)C(O)(Cc1ccncc1)P(=O)(O)O,–,171,> 200,–
O=P(O)(O)C(Nc1ccc2c(c1)CCC2)P(=O)(O)O,> 200,> 976,> 200,–
Cc1cccc(NC(P(=O)(O)O)P(=O)(O)O)n1,> 200,18.6,64,–
CCC(C)CNC(P(=O)(O)O)P(=O)(O)O (centres undefined),> 200,394,135,2.92
O=P(O)(O)C(N1CCc2ccccc2C1)P(=O)(O)O,–,> 922,71,> 13
O=P(O)(O)C(Nc1ccc(Cl)nc1)P(=O)(O)O,> 200,> 992,21.7,> 45.7
O=P(O)(O)C(N1CCC(O)CC1)P(=O)(O)O,> 200,> 1010,> 200,–
"O=P(O)(O)C(Nc1cc(Cl)cc(Cl)c1)P(=O)(O)O [(3,5-DICHLOROPHENYLAMINO)METHYLENEDIPHOSPHONIC ACID]",> 200,314,> 200,–
O=P(O)(O)C(NCCc1ccc(O)cc1)P(=O)(O)O [(4-HYDROXYPHENETHYLAMINO)METHYLENEDIPHOSPHONIC ACID],> 200,99.8,> 200,–
CCCCN(CC)C(P(=O)(O)O)P(=O)(O)O [(BUTYL(ETHYL)AMINO)METHYLENEDIPHOSPHONIC ACID],> 200,> 1060,47.3,> 22.3

Compound,IC50 [1] [µM],CC50 [2] [µM],IC50 [3] [µM],selectivity ratio [4]
CCCCNC(P(=O)(O)O)P(=O)(O)O [(BUTYLAMINO)METHYLENEDIPHOSPHONIC ACID],> 200,212,> 200,–
O=P(O)(O)C(NC1CCC1)P(=O)(O)O [(CYCLOBUTYLAMINO)METHYLENEDIPHOSPHONIC ACID],> 200,260,> 200,–
O=P(O)(O)C(NC1CCCCC1)P(=O)(O)O [(CYCLOHEXYLAMINO)METHYLENEDIPHOSPHONIC ACID],> 200,–,–,–
O=P(O)(O)C(NC1CCCCCCC1)P(=O)(O)O [(CYCLOOCTYLAMINO)METHYLENEDIPHOSPHONIC ACID],> 200,354,15.5,22.9
O=P(O)(O)C(NC1CCCC1)P(=O)(O)O [(CYCLOPENTYLAMINO)METHYLENEDIPHOSPHONIC ACID],> 200,629,35.9,17.5
O=P(O)(O)C(NC1CC1)P(=O)(O)O [(CYCLOPROPYLAMINO)METHYLENEDIPHOSPHONIC ACID],> 200,246,113,2.18
O=P(O)(O)C(N(C1CCCCC1)C1CCCCC1)P(=O)(O)O [(DICYCLOHEXYLAMINO)METHYLENEDIPHOSPHONIC ACID],> 200,> 844,> 200,–
CC(C)N(C(C)C)C(P(=O)(O)O)P(=O)(O)O [(DIISOPROPYLAMINO)METHYLENEDIPHOSPHONIC ACID],> 200,852,194,4.39
CCCN(CCC)C(P(=O)(O)O)P(=O)(O)O [(DIPROPYLAMINO)METHYLENEDIPHOSPHONIC ACID],> 200,322,> 200,–
CC(C)CNC(P(=O)(O)O)P(=O)(O)O [(ISOBUTYLAMINO)METHYLENEDIPHOSPHONIC ACID],> 200,50.5,> 200,–
CCCNC(P(=O)(O)O)P(=O)(O)O [(PROPYLAMINO)METHYLENEDIPHOSPHONIC ACID],> 200,499,> 200,–
NCCCC(O)(P(=O)(O)O)P(=O)(O)O [ALENDRONIC ACID],–,–,> 200,–
O=P(O)(O)C(O)(C1CCC1)P(=O)(O)O [CYCLOBUTYL(HYDROXY)METHYLENEDIPHOSPHONIC ACID],> 200,> 1220,> 200,–
O=P(O)(O)C(O)(C1CCCCC1)P(=O)(O)O [CYCLOHEXYL(HYDROXY)METHYLENEDIPHOSPHONIC ACID],> 200,1090,> 200,–
O=P(O)(O)C(O)(C1CC1)P(=O)(O)O [CYCLOPROPYL(HYDROXY)METHYLENEDIPHOSPHONIC ACID],> 200,> 1240,> 200,–
O=P(O)(O)C(NC1CCCCCC1)P(=O)(O)O [INCADRONIC ACID],> 200,166,> 200,–
Cc1ncc([N+](=O)[O-])n1CCO [METRONIDAZOLE],–,–,3.2,–
O=P(O)(O)C(N1CCCCCC1)P(=O)(O)O [N-(HEXAMETHYLENEIMINO)METHYLENEBISPHOSPHONIC ACID],> 200,> 1100,> 200,–
NCCCCCC(O)(P(=O)(O)O)P(=O)(O)O [NERIDRONIC ACID],–,–,> 200,–
CN(C)CCC(O)(P(=O)(O)O)P(=O)(O)O [OLPADRONIC ACID],–,> 1050,> 200,–
O=P(O)(O)C(N1CCSCC1)P(=O)(O)O [THIOMORPHOLINOMETHYLENEDIPHOSPHONIC ACID],> 200,> 1120,> 200,–
O=P(O)(O)C(O)(Cn1ccnc1)P(=O)(O)O [ZOLEDRONIC ACID],167,63.7,12,–
